Results: patent US11033535B2, “Oxadiazoles and thiadiazoles as TGF-β inhibitors” (Southern Research Institute, priority 2017, dated 2021)
Read-outs that look alike come from different tables or passages of the source.

Test: Pharmacokinetic evaluation following a single oral and intravenous administration
Format: in vivo, CD1 mouse
Details: CD1, mouse, plasma; for C0 / AUC(0-inf) / AUC(0-t) / MRT inf / half-life / Vd: Table 10, IV Dose: 1 mg/kg
Description: A NMP stock solution was prepared by adding 1.136 mL of NMP to 5.68 mg of compound no. 42140 with vortexing and sonification, to obtain a solution with a concentration at 5 mg/mL of 42140:01. Next, to prepare an intravenous formulation, 0.100 mL of the 5 mg/mL stock solution was placed in a new vial. 0.100 mL of NMP and 0.400 mL of PEG400 were added with vortexing and sonification, followed by addition of 0.400 mL of saline with vortexing and sonification. […] 42140:01. Alternatively, to prepare an oral formulation, 0.200 mL of the 5 mg/mL stock solution was placed in a new vial. 0.400 mL of PEG400 was added with vortexing and sonification, followed by addition of 0.400 mL of saline with vortexing and sonifiction. […] 42140:01.
(§1) Briefly, the desired serial concentrations of working solutions were achieved by diluting a stock solution of the compound with 100% acetonitrile. 3 μL of working solutions (5, 10, 20, 50, 100, 500, 1000, 5000, 10000 ng/mL) were added to 30 μL of the blank CD1 mouse plasma to achieve calibration standards of 0.5-1000 ng/mL (0.5, 1, 2, 5, 10, 50, 100, 500, 1000 ng/mL) in a total volume of 33 μL. Five quality control samples at 1 ng/mL, 2 ng/mL, 5 ng/mL, 50 ng/mL and 800 ng/mL for plasma were prepared independently of those used for the calibration curves. These QC samples were prepared on the day of analysis in the same way as calibration standards.
Next, 33 μL standards, 33 μL QC samples, and 33 μL unknown samples (30 μL plasma with 3 μL blank solution) were added to 200 μL of acetonitrile containing IS mixture for precipitating protein, respectively. Then the samples were vortexed for 30 s. After centrifugation at 4 degree Celsius, 4000 rpm for 15 min, 3 μL of supernatant was injected into the LC/MS/MS system for quantitative analysis.
HPLC analysis was performed using 100% water with 0.1% formic acid (Solution A) and 100% acetonitrile with 0.1% formic acid (Solution B) with a flow rate of 0.6 mL/min.
A NMP stock solution was prepared by adding 2.092 mL of NMP to 10.46 mg of […] with vortexing and sonification, to obtain a solution with a concentration at 5 mg/mL of […]. Next, to prepare an intravenous formulation, 0.100 mL of the 5 mg/mL stock solution was placed in a new vial. 0.100 mL of NMP and 0.400 mL of PEG400 were added with vortexing and sonification, followed by addition of 0.400 mL of saline with vortexing and sonification. […] 42320:01. Alternatively, to prepare an oral formulation, 0.200 mL of the 5 mg/mL stock solution was placed in a new vial. 0.400 mL of PEG400 was added with vortexing and sonification, followed by addition of 0.400 mL of saline with vortexing and sonifiction. […] 42320:01.
as §1, with “50 ng/mL,” for “50 ng/mL”

[1] = iv, 1 mg/kg, Table 9, IV Dose: 1 mg/kg, Mouse 1, read-out: Concentration
[2] = iv, 1 mg/kg, Table 9, IV Dose: 1 mg/kg, Mouse 2, read-out: Concentration
[3] = iv, 1 mg/kg, Table 9, IV Dose: 1 mg/kg, Mouse 3, read-out: Concentration
[4] = iv, 1 mg/kg, Table 9, IV Dose: 1 mg/kg, mean, read-out: Concentration, Mean
[5] = po, 5 mg/kg, Table 11, PO Dose: 5 mg/kg, Mouse 4, read-out: Concentration
[6] = po, 5 mg/kg, Table 11, PO Dose: 5 mg/kg, Mouse 5, read-out: Concentration
[7] = po, 5 mg/kg, Table 11, PO Dose: 5 mg/kg, Mouse 6, read-out: Concentration
[8] = po, 5 mg/kg, Table 11, PO Dose: 5 mg/kg, mean, read-out: Concentration, Mean

concentration at 5 min [1]: 86.9 ng/mL | concentration at 5 min [2]: 90.3 ng/mL | concentration at 5 min [3]: 85.7 ng/mL | concentration at 5 min [4]: 87.6 ng/mL | concentration at 0.25 h [1]: 68.4 ng/mL | concentration at 0.25 h [2]: 65 ng/mL | concentration at 0.25 h [3]: 68.3 ng/mL | concentration at 0.25 h [4]: 67.2 ng/mL | concentration at 0.5 h [1]: 68 ng/mL | concentration at 0.5 h [2]: 59.2 ng/mL | concentration at 0.5 h [3]: 52.7 ng/mL | concentration at 0.5 h [4]: 60 ng/mL | concentration at 1 h [1]: 41.2 ng/mL | concentration at 1 h [2]: 39.4 ng/mL | concentration at 1 h [3]: 47.1 ng/mL | concentration at 1 h [4]: 42.6 ng/mL | concentration at 2 h [1]: 26.5 ng/mL | concentration at 2 h [2]: 23.9 ng/mL | concentration at 2 h [3]: 25.9 ng/mL | concentration at 2 h [4]: 25.4 ng/mL | concentration at 4 h [1]: 11.9 ng/mL | concentration at 4 h [2]: 9.71 ng/mL | concentration at 4 h [3]: 13 ng/mL | concentration at 4 h [4]: 11.5 ng/mL | concentration at 8 h [1]: 4.08 ng/mL | concentration at 8 h [2]: 3.66 ng/mL | concentration at 8 h [3]: 5.31 ng/mL | concentration at 8 h [4]: 4.35 ng/mL | C0 (iv, 1 mg/kg, Mouse 1): 97.9 ng/mL | AUC(0-inf) (iv, 1 mg/kg, Mouse 1, read-out: AUCInf): 183 ng·h/mL | AUC(0-t) (iv, 1 mg/kg, Mouse 1, read-out: AUClast): 169 ng·h/mL | MRT inf (iv, 1 mg/kg, Mouse 1, read-out: MRTInf—obs): 2.66 h | half-life (iv, 1 mg/kg, Mouse 1, read-out: T1/2 (converted)): 2.27 h | Vd (iv, 1 mg/kg, Mouse 1, read-out: Vss—obs): 14.6 L/kg | C0 (iv, 1 mg/kg, Mouse 2): 106 ng/mL | AUC(0-inf) (iv, 1 mg/kg, Mouse 2, read-out: AUCInf): 165 ng·h/mL | AUC(0-t) (iv, 1 mg/kg, Mouse 2, read-out: AUClast): 153 ng·h/mL | MRT inf (iv, 1 mg/kg, Mouse 2, read-out: MRTInf—obs): 2.59 h | half-life (iv, 1 mg/kg, Mouse 2, read-out: T1/2 (converted)): 2.29 h | Vd (iv, 1 mg/kg, Mouse 2, read-out: Vss—obs): 15.7 L/kg | C0 (iv, 1 mg/kg, Mouse 3): 96 ng/mL | AUC(0-inf) (iv, 1 mg/kg, Mouse 3, read-out: AUCInf): 193 ng·h/mL | AUC(0-t) (iv, 1 mg/kg, Mouse 3, read-out: AUClast): 172 ng·h/mL | MRT inf (iv, 1 mg/kg, Mouse 3, read-out: MRTInf—obs): 3.17 h | half-life (iv, 1 mg/kg, Mouse 3, read-out: T1/2 (converted)): 2.68 h | Vd (iv, 1 mg/kg, Mouse 3, read-out: Vss—obs): 16.4 L/kg | AUC(0-inf) (iv, 1 mg/kg, mean, read-out: AUCInf, Mean): 180 ng·h/mL | AUC(0-t) (iv, 1 mg/kg, mean, read-out: AUClast, Mean): 165 ng·h/mL | MRT inf (iv, 1 mg/kg, mean, read-out: MRTInf—obs, Mean): 2.81 h | half-life (iv, 1 mg/kg, mean, read-out: T1/2, Mean (converted)): 2.41 h | Vd (iv, 1 mg/kg, mean, read-out: Vss—obs, Mean): 15.6 L/kg | concentration at 0.25 h [5]: 100 ng/mL | concentration at 0.25 h [6]: 71.4 ng/mL | concentration at 0.25 h [7]: 78.6 ng/mL | concentration at 0.25 h [8]: 83 ng/mL | concentration at 0.5 h [5]: 201 ng/mL | concentration at 0.5 h [6]: 121 ng/mL | concentration at 0.5 h [7]: 122 ng/mL | concentration at 0.5 h [8]: 148 ng/mL | concentration at 1 h [5]: 193 ng/mL | concentration at 1 h [6]: 119 ng/mL | concentration at 1 h [7]: 112 ng/mL | concentration at 1 h [8]: 141 ng/mL
Structure (SMILES): CC(=O)N[C@@H](Cc1ccc(CN(C)C)cc1)c1nnc(-c2cccc(OC(F)(F)F)c2)s1 [Compound 42320, N-(2-(4-((dimethylamino)methyl)phenyl)-1-(5-(3-(trifluoromethoxy)phenyl)-1,3,4-thiadiazol-2-yl)ethyl)acetamide]
